Results on 22 molecules are retold here after US8921382B2, “Thiazolo[5,4-d] pyrimidines and their use as agrochemicals” (Dow AgroSciences, LLC., priority 2010, dated 2014).

Structures are written as SMILES.

Common to all, as to type: in vivo
One assay relates to Septoria tritici. The experiment in a line: Septoria Blotch of Wheat foliar spray test, inoculated one day after treatment. The settings on record: Zymoseptoria tritici, wheat plants, read-out: Activity against Fungal Diseases SEPTTR (percent disease control); for pest or weed control at 25 ppm: Tested at 25 ppm; for pest or weed control at 200 ppm: applied to foliage at 200 ppm. On the procedure: (§1) Fungicide activity data are the level (in percent) at which the given disease was controlled when the given compound was applied to the foliage of the plants at 200 ppm. In a few cases (noted in the table) the compound was applied to the plants at 25 ppm or 3 ppm. The plants were inoculated with the fungus one day after treatment. ***=80-100% control; **=50-79% control; *=0-49% control. […] The activity of the compounds as effective fungicides was determined by applying the compounds to plants and observing control of fungal disease. […] All plants were inoculated with spores of the fungus the day after treatment, then incubated in an environment conducive to disease development. Disease severity was evaluated 4 to 25 days (d) later, depending on the speed of disease development. The following experiments were performed in the laboratory to determine the fungicidal efficacy of the compounds of the invention. […] Each pot contained 3-10 seedlings. These plants were sprayed until wet with the formulated test compound. On the following day, the leaves were inoculated with an aqueous spore suspension of Septoria tritici and the plants were kept in high humidity (one day in a dark dew chamber followed by two days in a lighted dew chamber) to permit spores to germinate and infect the leaf. The plants were then transferred to a greenhouse until disease developed on untreated control plants. […] The effectiveness of the test compounds at controlling disease when sprayed on leaves was determined by assessing the severity of disease on treated plants, then converting the severity to percent control based on the level of disease on untreated, inoculated plants.

In assay [1] the test system is Puccinia recondita tritici. The experiment in a line: Leaf Rust of Wheat foliar spray test, inoculated one day after treatment. The conditions noted are these: wheat plants, read-out: Activity against Fungal Diseases PUCCRT (percent disease control); for pest or weed control at 3 ppm: Tested at 3 ppm; for pest or weed control at 200 ppm: applied to foliage at 200 ppm. The protocol:
as §1, with “3-8” for “3-10”, “compounds.” for “compound.”, “Puccinia recondita” for “Septoria”, “overnight” for “(one day in a dark dew chamber followed by two days in a lighted dew chamber)”

The next assay relates to Pyricularia oryzae. The experiment in a line: whole plant or invertebrate. The settings on record: foliar, read-out: Activity against Fungal Diseases PYRIOR (percent disease control).

For `Fc1nc(F)c(F)c(Oc2ccc(CCNc3ncnc4scnc34)cc2)c1F` [Compound 5, {2-[4-(2,3,5,6-tetrafluoropyridin-4-yloxy)-phenyl]-ethyl}-thiazolo[5,4-d]pyrimidin-7-ylamine], the pest or weed control at 25 ppm in the assay on Septoria tritici lay within 0 to 49%. Moreover, the pest or weed control at 3 ppm in assay [1] lay within 80 to 100%.
In the case of `N#Cc1ccnc(Oc2ccc(CCNc3ncnc4scnc34)cc2)c1` [Compound 2, 2-{4-[2-(thiazolo[5,4-d]pyrimidin-7-ylamino)-ethyl]-phenoxy}-isonicotinonitrile], the pest or weed control at 25 ppm in the assay on Septoria tritici was in the range of 50 to 79%. In addition, the pest or weed control at 200 ppm (with Pyricularia oryzae; in assay [1]) was 80 to 100% throughout.
Consider `COc1ccc(CCNc2ncnc3scnc23)c(C)c1` [Compound 56, [2-(4-methoxy-2-methylphenyl)-ethyl]-thiazolo[5,4-d]pyrimidin-7-ylamine], for which the pest or weed control at 200 ppm in the assay on Septoria tritici fell in the range of 50 to 79%; in assay [1] it was 0 to 49%.
For the molecule `COc1cc(CCNc2ncnc3scnc23)ccc1Oc1cc(C(F)(F)F)ccn1` [Compound 17, {2-[3-methoxy-4-(4-trifluoromethylpyridin-2-yloxy)-phenyl]-ethyl}-thiazolo[5,4-d]pyrimidin-7-ylamine], in the assay with Septoria tritici, the pest or weed control at 25 ppm fell in the range of 80 to 100%. In assay [1], the pest or weed control at 3 ppm lay in the range of 80 to 100%.
For the molecule `Fc1cc(Oc2cc(C(F)(F)F)ccn2)ccc1CCNc1ncnc2scnc12` [Compound 60, {2-[2-fluoro-4-(4-trifluoromethylpyridin-2-yloxy)-phenyl]-ethyl}-thiazolo[5,4-d]pyrimidin-7-ylamine], the pest or weed control at 200 ppm (in the assay on Septoria tritici; in assay [1]) was 80 to 100% in each case.
On to `Cc1cc(CCN(c2nc(C(F)(F)F)c(Cl)s2)c2ncnc3scnc23)ccc1Oc1nc(C(F)(F)F)c(Cl)s1` [Compound 45, (5-chloro-4-trifluoromethylthiazol-2-yl)-{2-[4-(5-chloro-4-trifluoromethylthiazol-2-yloxy)-3-methylphenyl]-ethyl}-thiazolo[5,4-d]pyrimidin-7-ylamine], for which the pest or weed control at 25 ppm with Septoria tritici was 0 to 49%. Moreover, in assay [1], the pest or weed control at 3 ppm lay within 0 to 49%.
In the case of `CC(Cc1ccc(Oc2c(F)cnc(C(F)(F)F)c2F)cc1)Nc1ncnc2scnc12` (stereo not shown) [Compound 14, {2-[4-(3,5-Difluoro-2-trifluoromethylpyridin-4-yloxy)-phenyl]-1-methyl-ethyl}-thiazolo[5,4-d]pyrimidin-7-ylamine], in the assay with Septoria tritici, the pest or weed control at 25 ppm fell in the range of 80 to 100%. For the same molecule, the pest or weed control at 3 ppm in assay [1] was 0 to 49%.
With `COc1cc(CCNc2ncnc3scnc23)ccc1Oc1cc(C(F)(F)F)ncn1` [Compound 54, {2-[3-methoxy-4-(6-trifluoromethylpyrimidin-4-yloxy)-phenyl]-ethyl}-thiazolo[5,4-d]pyrimidin-7-ylamine], the pest or weed control at 200 ppm (with Septoria tritici; in assay [1]) was 80 to 100% in each case.
Consider `COc1ccc(CCNc2ncnc3scnc23)c(F)c1` [Compound 55, [2-(2-fluoro-4-methoxyphenyl)-ethyl]-thiazolo[5,4-d]pyrimidin-7-ylamine], for which the pest or weed control at 200 ppm in the assay with Septoria tritici was 0 to 49%; in assay [1], 80 to 100%.
Consider `COc1cc(CCNc2ncnc3scnc23)ccc1Oc1c(Cl)cnc(C(F)(F)F)c1Cl` [Compound 48, {2-[4-(3,5-dichloro-2-trifluoromethylpyridin-4-yloxy)-3-methoxyphenyl]-ethyl}-thiazolo[5,4-d]pyrimidin-7-ylamine], for which the pest or weed control at 200 ppm (with Septoria tritici; in the assay on Pyricularia oryzae; in assay [1]) was 80 to 100% each time.
Consider `COc1ccc(C(C)Nc2ncnc3scnc23)cc1` (stereo not shown) [Compound 1, [1-(4-Methoxyphenyl)-ethyl]-thiazolo[5,4-d]pyrimidin-7-yl-amine], for which the pest or weed control at 200 ppm (with Pyricularia oryzae; in assay [1]) was 80 to 100% in each case.
`Oc1ccc(CCNc2ncnc3scnc23)c(F)c1` [Compound 58, 3-fluoro-4-[2-(thiazolo[5,4-d]pyrimidin-7-ylamino)-ethyl]phenol]: the pest or weed control at 200 ppm (with Septoria tritici; in assay [1]) was 0 to 49% each time.
As for `FC(F)(F)COc1ccc(CCNc2ncnc3scnc23)cn1` [Compound 4, thiazolo[5,4-d]pyrimidin-7-yl-{2-[6-(2,2,2-trifluoroethoxy)-pyridin-3-yl]-ethyl}-amine], in the assay on Septoria tritici, the pest or weed control at 25 ppm was 0 to 49%. Moreover, the pest or weed control at 200 ppm (in the assay on Pyricularia oryzae; in assay [1]) was 80 to 100% throughout.
Turning to `Cc1cc(CCNc2ncnc3scnc23)ccc1Oc1ccncc1C(F)(F)F` [Compound 47, {2-[3-methyl-4-(3-trifluoromethylpyridin-4-yloxy)-phenyl]-ethyl}-thiazolo[5,4-d]pyrimidin-7-ylamine], the pest or weed control at 200 ppm (in the assay on Septoria tritici; with Pyricularia oryzae; in assay [1]) was 80 to 100% each time.
As for `COc1cc(CCNc2ncnc3scnc23)ccc1Oc1ccc(C(F)(F)F)cn1` [Compound 51, {2-[3-methoxy-4-(5-trifluoromethylpyridin-2-yloxy)-phenyl]-ethyl}-thiazolo[5,4-d]pyrimidin-7-ylamine], the pest or weed control at 25 ppm with Septoria tritici was 80 to 100%. Moreover, the pest or weed control at 3 ppm in assay [1] was 80 to 100%.
As to `Fc1cc(Oc2cc(C(F)(F)F)ncn2)ccc1CCNc1ncnc2scnc12` [Compound 63, {2-[2-fluoro-4-(6-trifluoromethylpyrimidin-4-yloxy)-phenyl]-ethyl}-thiazolo[5,4-d]pyrimidin-7-ylamine], the pest or weed control at 200 ppm (in the assay on Septoria tritici; in assay [1]) was 80 to 100% throughout.
With `Oc1ccc(CCNc2ncnc3scnc23)cc1` [Compound 3, 4-[2-(thiazolo[5,4-d]pyrimidin-7-ylamino)-ethyl]-phenol], the pest or weed control at 25 ppm in the assay on Septoria tritici lay within 0 to 49%. Further, the pest or weed control at 200 ppm (in the assay with Pyricularia oryzae; in assay [1]) was 0 to 49% each time.
With `FC(F)(F)c1ccc(Oc2ccc(CCNc3ncnc4scnc34)cc2)nc1` [Compound 50, thiazolo[5,4-d]pyrimidin-7-yl-{2-[4-(5-trifluoromethylpyridin-2-yloxy)-phenyl]-ethyl}-amine], the pest or weed control at 25 ppm with Septoria tritici lay in the range of 80 to 100%. Also, the pest or weed control at 3 ppm in assay [1] was 80 to 100%.
For the molecule `COc1cc(CCNc2ncnc3scnc23)ccc1Oc1cnccc1C(F)(F)F` [Compound 29, {2-[3-methoxy-4-(4-trifluoromethylpyridin-3-yloxy)-phenyl]-ethyl}-thiazolo[5,4-d]pyrimidin-7-ylamine], the pest or weed control at 25 ppm with Septoria tritici lay within 50 to 79%. Moreover, in assay [1], the pest or weed control at 3 ppm lay within 80 to 100%.
`COc1ccc(CCNc2ncnc3scnc23)cc1C` [Compound 19, [2-(4-methoxy-3-methylphenyl)-ethyl]-thiazolo[5,4-d]pyrimidin-7-ylamine]: the pest or weed control at 200 ppm with Septoria tritici lay within 50 to 79%; in assay [1] it was 80 to 100%.
In the same order, the values of `Cc1cc(CCNc2ncnc3scnc23)ccc1O` [Compound 20, 2-methyl-4-[2-(thiazolo[5,4-d]pyrimidin-7-ylamino)-ethyl]-phenol] are 0 to 49% and 0 to 49%.
`Cc1cc(O)ccc1CCNc1ncnc2scnc12` [Compound 57, 3-methyl-4-[2-(thiazolo[5,4-d]pyrimidin-7-ylamino)-ethyl]-phenol]: the pest or weed control at 200 ppm (with Septoria tritici; in assay [1]) was 0 to 49% in each case.
